In ChEMBL document CHEMBL1201862, “PubChem BioAssay data set” (2004):
Calls of active or inactive are those of the source.

Columns and labels:
[1] = molecular target: T1, Oxysterols receptor LXR-beta (Homo sapiens, UniProt P55055); assay type: functional, cell-based;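 also: agonist activity at LXR measured by a cell-based luminescence readout across a dose range, run as a counterscreen for daf-12 agonists; HEK293 cells with Gal4-LXR fusion and GAL4-driven luciferase reporter; potency for activation of Gal4-LXR reporter so compounds are agonists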
T1 sequence (P55055 whole entry): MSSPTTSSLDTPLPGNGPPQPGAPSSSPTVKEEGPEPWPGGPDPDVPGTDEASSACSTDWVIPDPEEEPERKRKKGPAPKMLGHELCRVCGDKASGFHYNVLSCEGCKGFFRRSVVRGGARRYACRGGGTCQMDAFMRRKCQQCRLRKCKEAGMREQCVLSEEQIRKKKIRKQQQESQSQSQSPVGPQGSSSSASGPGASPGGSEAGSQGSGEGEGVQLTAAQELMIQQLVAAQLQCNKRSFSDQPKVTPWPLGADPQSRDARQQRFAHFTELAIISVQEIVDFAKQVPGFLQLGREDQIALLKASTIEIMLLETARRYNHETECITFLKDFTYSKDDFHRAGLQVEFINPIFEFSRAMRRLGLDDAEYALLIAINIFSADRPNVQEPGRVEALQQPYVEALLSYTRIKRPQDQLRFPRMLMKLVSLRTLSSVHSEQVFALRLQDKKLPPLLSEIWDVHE

[2] = inhibitors of SNCA 5'UTR-driven reporter translation, confirmation, H4 neuroglioma cells, luminescence (AID 1988); assay type: functional, cell-based
[3] = LGR2 antagonists, dose response, cell-based, HEK293, CRE-luciferase reporter, cherry pick, set 2 (AID 743343); assay type: functional;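 also: transfected cells were stimulated with diluted bursicon conditioned medium after compound addition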
[4] = Luminescence Cell-Based Dose Response HTS to Identify Inhibitors of 5'UTR Stem-Loop Driven Prion Protein mRNA Translation in H4 Neuroglioblastoma Cells. [Related pubchem assays: 1827 (Project Summary), 1813 (Primary HTS)]; assay type: functional
[5] = inhibitors of firefly luciferase expression or activity, dose response, H4 neuroglioma cells, luminescence (AID 1990); assay type: functional, cell-based
[6] = HEK293 cell cytotoxicity, dose response, cytotoxicity control, plate reader, cherry-picked samples (AID 743446); assay type: functional, cell-based
[7] = MC4R antagonists, dose response, counter-screen for LGR2 antagonist project, cell-based, plate reader, cherry pick (AID 743444); assay type: functional;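 also: transfected HEK 293 cells stimulated with alpha-MSH peptide; potency of inhibitors of the alpha-MSH evoked signal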
[8] = A549 cell cytotoxicity, dose response, cytotoxicity control, plate reader, cherry-pick, antagonist series (AID 743412); assay type: functional, cell-based
[9] = HepG2 cell cytotoxicity, dose response, cytotoxicity control, plate reader, cherry-pick, antagonist series (AID 743416); assay type: functional, cell-based
[10] = molecular target: T2, DNA repair protein RAD52 homolog (Homo sapiens, UniProt P43351); assay type: functional, biochemical
T2 sequence (P43351 whole entry): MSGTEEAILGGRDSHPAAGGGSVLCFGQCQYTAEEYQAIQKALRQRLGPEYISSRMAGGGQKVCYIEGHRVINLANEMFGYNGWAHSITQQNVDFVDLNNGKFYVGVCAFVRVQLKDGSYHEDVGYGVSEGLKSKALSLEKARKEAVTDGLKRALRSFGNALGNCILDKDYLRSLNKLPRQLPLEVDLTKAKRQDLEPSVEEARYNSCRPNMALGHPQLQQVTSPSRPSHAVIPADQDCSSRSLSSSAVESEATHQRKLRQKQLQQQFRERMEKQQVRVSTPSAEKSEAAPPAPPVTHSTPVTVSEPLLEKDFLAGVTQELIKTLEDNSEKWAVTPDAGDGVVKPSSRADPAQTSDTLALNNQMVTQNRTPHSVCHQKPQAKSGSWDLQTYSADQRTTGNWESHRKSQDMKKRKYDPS

[11] = molecular target: T3, Tyrosine-protein phosphatase non-receptor type 7 (Homo sapiens, UniProt P35236); experiment: inhibitors of human HePTP phosphatase, […], biochemical, absorbance, leukemia target (AID 521); assay type: functional
T3 sequence (P35236 whole entry): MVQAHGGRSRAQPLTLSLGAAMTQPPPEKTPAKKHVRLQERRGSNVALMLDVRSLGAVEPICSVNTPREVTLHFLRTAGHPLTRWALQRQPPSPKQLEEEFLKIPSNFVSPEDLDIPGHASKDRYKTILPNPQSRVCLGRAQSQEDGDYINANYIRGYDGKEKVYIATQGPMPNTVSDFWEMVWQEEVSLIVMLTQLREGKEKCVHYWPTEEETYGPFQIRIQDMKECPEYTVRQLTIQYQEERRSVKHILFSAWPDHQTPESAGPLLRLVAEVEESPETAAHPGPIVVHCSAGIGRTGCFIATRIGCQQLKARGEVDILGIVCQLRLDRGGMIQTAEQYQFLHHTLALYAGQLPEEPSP

Albumin = Albumin (Bos taurus, UniProt P02769); experiment: Counterscreen for inhibitors of T-cell receptor (TCR)-CD3 interaction: Fluorescence-based biochemical high throughput dose response assay to identify inhibitors of T-cell receptor (TCR)-CD3 interaction using a TAMRA-labeled BSA probe.; assay type: functional
Albumin, sequence (P02769 whole entry): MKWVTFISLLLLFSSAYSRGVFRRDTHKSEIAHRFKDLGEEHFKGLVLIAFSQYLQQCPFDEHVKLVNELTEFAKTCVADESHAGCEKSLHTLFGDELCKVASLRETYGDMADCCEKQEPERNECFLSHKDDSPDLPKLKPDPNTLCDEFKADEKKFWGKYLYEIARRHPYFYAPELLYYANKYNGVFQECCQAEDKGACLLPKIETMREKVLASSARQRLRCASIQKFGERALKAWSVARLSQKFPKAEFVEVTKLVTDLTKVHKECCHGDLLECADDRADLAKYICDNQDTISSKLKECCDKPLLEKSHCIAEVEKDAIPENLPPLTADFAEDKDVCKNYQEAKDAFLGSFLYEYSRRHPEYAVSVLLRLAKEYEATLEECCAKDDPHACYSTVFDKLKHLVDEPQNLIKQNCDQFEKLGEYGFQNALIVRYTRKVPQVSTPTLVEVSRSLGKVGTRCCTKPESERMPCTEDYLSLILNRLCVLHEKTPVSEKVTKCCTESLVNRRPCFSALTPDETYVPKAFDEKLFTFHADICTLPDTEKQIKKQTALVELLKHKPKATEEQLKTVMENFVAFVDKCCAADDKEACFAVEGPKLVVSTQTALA

[12] = P. falciparum Dd2 growth inhibitors, dose response, SYBR Green, cherry-picked samples (AID 1159567); assay type: functional, cell-based
[13] = HepG2 cell cytotoxicity, dose response, cytotoxicity control, cherry-picked samples (AID 1159577); assay type: functional, cell-based
[14] = P. falciparum late gametocyte killing, dose response, luminescence (AID 1117278); assay type: functional, cell-based;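 also: gametocytes exposed to compound for 24 hours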
[15] = Jurkat T cell cytotoxicity, dose response, cytotoxicity control for P. falciparum gametocyte viability project, luminescence (AID 1117277); assay type: functional, cell-based;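 also: potency reflects loss of cellular ATP meaning fewer viable cells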
[16] = molecular target: T4, Trace amine-associated receptor 1 (Homo sapiens, UniProt Q96RJ0); experiment: Fluorescence-based cell-based high throughput dose response assay to identify agonists of the human trace amine associated receptor 1 (TAAR1).; assay type: functional
T4 sequence (Q96RJ0 whole entry): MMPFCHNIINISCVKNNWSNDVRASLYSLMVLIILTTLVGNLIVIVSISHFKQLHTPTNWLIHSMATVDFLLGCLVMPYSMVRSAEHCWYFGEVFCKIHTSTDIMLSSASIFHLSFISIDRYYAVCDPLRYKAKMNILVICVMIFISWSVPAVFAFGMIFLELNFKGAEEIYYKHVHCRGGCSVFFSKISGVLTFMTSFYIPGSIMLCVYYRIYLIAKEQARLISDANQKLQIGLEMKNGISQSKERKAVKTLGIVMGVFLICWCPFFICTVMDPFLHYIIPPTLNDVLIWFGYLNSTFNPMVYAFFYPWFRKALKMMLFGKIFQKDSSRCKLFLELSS

cells [17] = assay type: functional, cell-based
cells [18] = assay type: functional, cell-based; remark: listed apart in the source
[19] = molecular target: T4, Trace amine-associated receptor 1; experiment: Counterscreen for agonists of the human trace amine associated receptor 1 (hTAAR1): Fluorescence-based cell-based high throughput dose response assay to identify hTAAR1 agonist that also desensitize TAAR1 receptor response.; assay type: functional
[20] = molecular target: T5, Endoribonuclease toxin MazF (Escherichia coli K-12, UniProt P0AE70); experiment: fluorescent RNA oligo signal without MazF, dose response, counter-screen for MazEF activator project, biochemical, fluorescence, single-stranded RNase substrate (AID 588502); assay type: functional
T5 sequence (P0AE70 whole entry): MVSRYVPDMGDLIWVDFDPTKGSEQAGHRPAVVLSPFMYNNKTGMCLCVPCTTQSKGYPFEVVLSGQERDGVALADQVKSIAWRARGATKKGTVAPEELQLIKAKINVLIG

[21] = HepG2 cell cytotoxicity, dose response, cytotoxicity control for Shn3 inhibitor project, CellTiter-Glo, cherry-picked (AID 624134); assay type: functional, cell-based
[22] = molecular target: T5, Endoribonuclease toxin MazF; experiment: MazF toxin RNase activators, dose response, biochemical, fluorescence, single-stranded RNA substrate, uHTS hits (AID 588481); assay type: functional

C(=C\n1nnc2ccccc21)/c1ccccn1
EC50 [1]: > 67.5 µM (inactive)

COc1ccc2cc3cc(C(=O)NC4CC4)sc3nc2c1
EC50 [2]: 5.41 µM (active)
AC50 [3]: 3.86 µM (active)
EC50 [4]: 7.47 µM (active)
EC50 [5]: 6.66 µM (inconclusive)
AC50 [6]: > 52 µM (inactive)
AC50 [7]: 4.27 µM (active)
AC50 [8]: 29.1 µM (active)
AC50 [9]: > 52 µM (inactive)

CN(C)CCN(C(=O)c1ccc2ccccc2c1)c1nc2cc3c(cc2s1)OCO3
AC50 [10]: 28.3 µM (active)

Cc1ccccc1Cn1c2ccccc2c2cnn(CC(=O)NCCCN3CCN(C)CC3)c(=O)c21
AC50 [10]: 9.43 µM (active)

CCn1c2ccccc2c2nnc(SCC(=O)N3CC(C)OC(C)C3)nc21 (stereo unspecified)
IC50 [11]: > 100 µM (not active)

Cc1cccc(C(=O)NCC(=O)NNC(=O)c2ccccc2O)c1
IC50 (Albumin): > 94 µM (inactive)

COCC1CCN(Cc2nc(-c3cccs3)no2)C1 (stereo unspecified)
EC50 [1]: > 67.5 µM (inactive)

COc1cccc(S(=O)(=O)Nc2ccc3c(c2)[C@@H]2C[C@H](CC(=O)NCc4ccc(Cl)cc4)O[C@@H](CO)[C@@H]2O3)c1
AC50 [12]: 5.66 µM (active)
AC50 [13]: > 39 µM (inactive)

COc1ccc(Cc2nnc(NC(=O)c3ccco3)s2)cc1OC
IC50 [11]: > 100 µM (not active)

Cc1ccc(OCc2ccc(Br)cc2)c([N+](=O)[O-])n1
EC50 [1]: > 67.5 µM (inactive)

COc1ccc(-c2nc(N)n(C(=O)c3ccccc3)n2)cc1
IC50 [14]: > 109 µM (inactive)
IC50 [15]: > 83.3 µM (inactive)

Fc1ccc(Nc2nc(-c3ccncc3)cs2)cc1
IC50 [14]: > 109 µM (inactive)
IC50 [15]: > 83.2 µM (inactive)

Cc1cc(C)cc(OCc2nc(-c3cccnc3)no2)c1
IC50 [14]: > 109 µM (inactive)
IC50 [15]: > 83.3 µM (inactive)

COc1ccccc1CCn1cnc(-c2ccc(Cl)cc2)c1CC(C)C
AC50 [3]: 19 µM (active)
AC50 [6]: > 52 µM (inactive)
AC50 [7]: 17.7 µM (active)
EC50 [16]: 2.37 µM (active)
AC50 [8]: 23.2 µM (active)
EC50 (cells [17]): > 30 µM (inactive)
IC50 (cells [18]): 14.2 µM (inactive)
AC50 [9]: 31.2 µM (active)
IC50 [19]: 6.55 µM (active)

CCOC(=O)CSc1nc2cc3c(cc2cc1C)OCO3
IC50 [14]: > 109 µM (inactive)
IC50 [15]: > 83.3 µM (inactive)

CO[C@H]1CN(C)C(=O)c2cc(NC(=O)c3ccc(-c4ccccc4)cc3)ccc2OC[C@H](C)NC[C@H]1C
AC50 [12]: 5.36 µM (active)
AC50 [13]: 10.1 µM (active)

O=C1/C(=C/Nc2ccccc2O)c2ccccc2C(=O)N1c1nccs1
EC50 [20]: > 99 µM (inactive)
IC50 (Albumin): > 94.1 µM (inactive)
AC50 [21]: > 70 µM (inactive)
EC50 [22]: > 99 µM (inactive)
